In brackets after ≈: the same amount, converted by molar mass.
How the values were obtained:
Plasmorpara viticola = assay: Example I grape downy mildew; assay type: in vivo; conditions: read-out: disease control rating, Ex. I
In short: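 Applied as a foliar spray to run-off on grape seedlings, the compounds were formulated at 100 or 20 ppm in water containing 250 ppm TREM 014, with acetone making up 6% of the volume.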

BARNYARDGRASS = assay: Test C rice paddy; assay type: in vivo, Echinochloa crusgalli; conditions: Echinochloa crus-galli, 504 h, 21 days, read-out: plant response; for pest or weed control at 64 g/ha: 0064 G/HA; for pest or weed control at 125 g/ha: 0125 G/HA; for pest or weed control at 250 g/ha: 0250 G/HA; for pest or weed control at 500 g/ha: 0500 G/HA
In short: (§1)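 Transplanted paddy test in flooded silt loam: Japonica and Indica rice at 2.0–2.5 leaf stage, water plantain, Scirpus and Cyperus seedlings or sprouted tubers, barnyardgrass from seed. Water raised to 3 cm 3–4 days after planting; compound in nonphytotoxic solvent added to paddy water within 24 h. Greenhouse.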

Phytophthora infestans = assay: whole plant or invertebrate; assay type: in vivo; conditions: Phytophthora infestans, in Solanum lycopersicum, read-out: disease control rating, Ex. H, 100 PPM
RICE INDICA EFF = assay: Test C rice paddy; assay type: in vivo; conditions: Oryza sativa, 504 h, 21 days, read-out: plant response; for pest or weed control at 64 g/ha: 0064 G/HA; for pest or weed control at 125 g/ha: 0125 G/HA; for pest or weed control at 250 g/ha: 0250 G/HA; for pest or weed control at 500 g/ha: 0500 G/HA
In short: as §1

[1] = system: Fusarium oxysporum f. sp. cucumerinum; assay: Example L cucumber wilt; assay type: in vivo; conditions: 336 h, 5 kg/ha, read-out: disease control rating, Ex. L
Experimental: […] Seeds and soil were then inoculated with a mixture of sand, cereal and mycelium of the fungus Fusarium oxysporum f. sp. cucumerinum, causal agent of cucumber wilt, and incubated in a growth chamber at 30° C. for 14 days. Disease ratings were then made.

[2] = system: Aspergillus fumigatus ATCC 28214; assay: In vitro antifungal MIC, microtiter broth dilution; conditions: Aspergillus fumigatus, ATCC28214, 24 h, read-out: MIC values, A. fumigatus, 30°, 24 hours
Experimental: In vitro activity (Table 5) is expressed in terms of the minimal inhibitory concentration (MIC) of the test compound which inhibits the growth of yeasts and fungi.
The target organisms, Candida albicans ATCC 11651 and Aspergillus fumigatus ATCC 28214 are standardized, [V. Bezjak, J. Clinical Micro., 21 509-512 (1984)], to a concentration of 10^7 organisms/ml and maintained at -70° until use. Test compounds are solubilized in dimethyl sulfoxide (DMSO) and diluted in Eagle's Minimum Essential Medium (EMEM) broth to achieve a final concentration of 200 μg/ml. Stock solutions of standard antifungal agents are stored at -70° and diluted in EMEM as required.
The in vitro assay utilizes a microtiter broth dilution technique [L. Polonelli and G. Morace, Mycopathologia, 86, 21-28 (1984)] and C. […] The appropriate wells are inoculated with the required organism (C. albicans at 1×10^4 organisms/ml and A. fumigatus at 5×10^5 organisms/ml) and the assay incubated at 30° for 24 hours.

Pyricularia oryzae = assay: whole plant or invertebrate; assay type: in vivo; conditions: Pyricularia oryzae, 120 h; for pest or weed control at 100 ppm: read-out: disease control rating, Ex. E, 100 PPM
RICE JAP EFF = assay: Test C rice paddy; assay type: in vivo, Japonica rice; conditions: Oryza sativa, 504 h, 21 days, read-out: plant response; for pest or weed control at 64 g/ha: 0064 G/HA; for pest or weed control at 125 g/ha: 0125 G/HA; for pest or weed control at 250 g/ha: 0250 G/HA; for pest or weed control at 500 g/ha: 0500 G/HA
In short: as §1

WATER PLAINTAIN = assay: Test C rice paddy; assay type: in vivo, Alisma trivale; conditions: 504 h, 21 days, read-out: plant response; for pest or weed control at 64 g/ha: 0064 G/HA; for pest or weed control at 125 g/ha: 0125 G/HA; for pest or weed control at 250 g/ha: 0250 G/HA; for pest or weed control at 500 g/ha: 0500 G/HA
In short: as §1

Botrytis cinerea = assay: Example C bean grey mold; assay type: in vivo; conditions: Botrytis cinerea, 24 h, read-out: disease control rating, Ex. C
In short: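 Test compounds were taken up in acetone (6% of final volume) and suspended at 100 or 20 ppm in purified water containing 250 ppm TREM 014 surfactant (polyhydric alcohol esters). Broad bean seedlings were sprayed with this suspension until run-off.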

WATERCHESTNUT = assay: Test C rice paddy; assay type: in vivo, Eleocharis spp.; conditions: Eleocharis, 504 h, 21 days, read-out: plant response; for pest or weed control at 64 g/ha: 0064 G/HA; for pest or weed control at 125 g/ha: 0125 G/HA; for pest or weed control at 250 g/ha: 0250 G/HA; for pest or weed control at 500 g/ha: 0500 G/HA
In short: (§2)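 Chemicals were applied as a water treatment to flooded pots (3 cm depth, kept constant) within 24 h of flooding, which occurred 3–4 days after planting. Weeds were grown from seedlings, sprouted tubers or seed alongside separately potted transplanted rice.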

Sclerotium rolfsii = assay: Example M southern blight; assay type: in vivo; conditions: Agroathelia rolfsii, 336 h; 5 kg/ha; read-out: disease control rating, Ex. M
Experimental: […] Seeds and soil were then inoculated with a mixture of sand, cereal and mycelium of the fungus Sclerotium rolfsii, causal agent of sourthern blight, and incubated in a growth chamber at 30° C. for 14 days. Disease ratings were then made.

Puccinia recondita = assay: Example G wheat leaf rust; assay type: in vivo; conditions: read-out: disease control rating, Ex. G
[3] = system: Erysiphe graminis f. sp. tritici; assay: Example D wheat powdery mildew; assay type: in vivo; conditions: Blumeria graminis, 144 h, read-out: disease control rating, Ex. D
In short: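 Compounds were dissolved in acetone (6% of final volume), then suspended at 100 or 20 ppm in purified water containing 250 ppm TREM 014 surfactant. Wheat seedlings were sprayed with this suspension to run-off.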

ARROWHEAD = assay: Test C rice paddy; assay type: in vivo, Sagittaria spp.; conditions: Sagittaria, 504 h, 21 days, read-out: plant response; for pest or weed control at 64 g/ha: 0064 G/HA; for pest or weed control at 125 g/ha: 0125 G/HA; for pest or weed control at 250 g/ha: 0250 G/HA; for pest or weed control at 500 g/ha: 0500 G/HA
In short: as §2

Venturia inaequalis = assay: Example A apple scab; assay type: in vivo; conditions: read-out: disease control rating, Ex. A
In short: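 Test compounds were dissolved in acetone (6% of final volume) and suspended at 100 or 20 ppm in purified water containing 250 ppm of the surfactant TREM 014 (polyhydric alcohol esters). Apple seedlings were sprayed with this suspension to the point of run-off.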

[4] = system: Cercosporidium personatum; assay: Example B Peanut Late Leafspot; assay type: in vivo; conditions: Nothopassalora personata, read-out: disease control rating, Ex. B
In short: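 Compounds were dissolved in acetone (6% of final volume) and suspended at 100 or 20 ppm in purified water containing 250 ppm TREM 014 surfactant (polyhydric alcohol esters). The suspension was sprayed to run-off on peanut seedlings.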

C=C(c1ccccc1Cl)C(O)(Cn1cncn1)c1ccc(F)cc1F (stereo not drawn) [Example 35]
pest or weed control at 100 ppm (Plasmorpara viticola): 26% | pest or weed control at 64 g/ha (BARNYARDGRASS): 70% | pest or weed control at 125 g/ha (BARNYARDGRASS): 100% | pest or weed control at 250 g/ha (BARNYARDGRASS): 80% | pest or weed control at 500 g/ha (BARNYARDGRASS): 100% | pest or weed control at 1000 g/ha (BARNYARDGRASS): 95% | pest or weed control at 100 ppm (Phytophthora infestans): 0% | pest or weed control at 64 g/ha (RICE INDICA EFF): 0% | pest or weed control at 125 g/ha (RICE INDICA EFF): 0% | pest or weed control at 250 g/ha (RICE INDICA EFF): 0% | pest or weed control at 500 g/ha (RICE INDICA EFF): 0% | pest or weed control at 1000 g/ha (RICE INDICA EFF): 20% | pest or weed control at 5000 g/ha [1]: 0% | MIC [2]: 0.1 µg/mL (≈ 0.276 µM) | pest or weed control at 100 ppm (Pyricularia oryzae): 0% | pest or weed control at 64 g/ha (RICE JAP EFF): 0% | pest or weed control at 125 g/ha (RICE JAP EFF): 0% | pest or weed control at 250 g/ha (RICE JAP EFF): 0% | pest or weed control at 500 g/ha (RICE JAP EFF): 0% | pest or weed control at 1000 g/ha (RICE JAP EFF): 20% | pest or weed control at 64 g/ha (WATER PLAINTAIN): 0% | pest or weed control at 125 g/ha (WATER PLAINTAIN): 0% | pest or weed control at 250 g/ha (WATER PLAINTAIN): 40% | pest or weed control at 500 g/ha (WATER PLAINTAIN): 40% | pest or weed control at 1000 g/ha (WATER PLAINTAIN): 60% | pest or weed control at 100 ppm (Botrytis cinerea): 96% | pest or weed control at 64 g/ha (WATERCHESTNUT): 60% | pest or weed control at 125 g/ha (WATERCHESTNUT): 40% | pest or weed control at 250 g/ha (WATERCHESTNUT): 60% | pest or weed control at 500 g/ha (WATERCHESTNUT): 0% | pest or weed control at 1000 g/ha (WATERCHESTNUT): 0% | pest or weed control at 5000 g/ha (Sclerotium rolfsii): 0% | pest or weed control at 100 ppm (Puccinia recondita; 100 PPM): 96% | pest or weed control at 100 ppm ([3]; 100 PPM): 100% | pest or weed control at 64 g/ha (ARROWHEAD): 0% | pest or weed control at 125 g/ha (ARROWHEAD): 0% | pest or weed control at 250 g/ha (ARROWHEAD): 40% | pest or weed control at 500 g/ha (ARROWHEAD): 50% | pest or weed control at 1000 g/ha (ARROWHEAD): 95% | pest or weed control at 100 ppm (Venturia inaequalis; 100 PPM): 100% | pest or weed control at 100 ppm ([4]; 100 PPM): 100%

C=C(c1ccccc1Cl)C(O)(Cn1cncn1)c1ccc(Cl)cc1Cl (stereo not drawn) [Example 33, 2-(2,4-Dichlorophenyl)-3-(2-chlorophenyl)-1-(1H-1,2,4-triazol-1-yl)-3-buten-2-ol]
pest or weed control at 100 ppm (Plasmorpara viticola): 24% | pest or weed control at 64 g/ha (BARNYARDGRASS): 0% | pest or weed control at 125 g/ha (BARNYARDGRASS): 10% | pest or weed control at 250 g/ha (BARNYARDGRASS): 80% | pest or weed control at 500 g/ha (BARNYARDGRASS): 70% | pest or weed control at 1000 g/ha (BARNYARDGRASS): 95% | pest or weed control at 100 ppm (Phytophthora infestans): 0% | pest or weed control at 64 g/ha (RICE INDICA EFF): 0% | pest or weed control at 125 g/ha (RICE INDICA EFF): 0% | pest or weed control at 250 g/ha (RICE INDICA EFF): 0% | pest or weed control at 500 g/ha (RICE INDICA EFF): 30% | pest or weed control at 1000 g/ha (RICE INDICA EFF): 70% | pest or weed control at 5000 g/ha [1]: 0% | MIC [2]: 0.03 µg/mL (≈ 0.076 µM) | pest or weed control at 20 ppm (Pyricularia oryzae; read-out: disease control rating, Ex. E, 20 PPM): 0% | pest or weed control at 100 ppm (Pyricularia oryzae): 0% | pest or weed control at 64 g/ha (RICE JAP EFF): 0% | pest or weed control at 125 g/ha (RICE JAP EFF): 0% | pest or weed control at 250 g/ha (RICE JAP EFF): 0% | pest or weed control at 500 g/ha (RICE JAP EFF): 30% | pest or weed control at 1000 g/ha (RICE JAP EFF): 60% | pest or weed control at 64 g/ha (WATER PLAINTAIN): 0% | pest or weed control at 125 g/ha (WATER PLAINTAIN): 0% | pest or weed control at 250 g/ha (WATER PLAINTAIN): 0% | pest or weed control at 500 g/ha (WATER PLAINTAIN): 0% | pest or weed control at 1000 g/ha (WATER PLAINTAIN): 0% | pest or weed control at 20 ppm (Botrytis cinerea; 20 PPM): 37% | pest or weed control at 100 ppm (Botrytis cinerea): 56% | pest or weed control at 64 g/ha (WATERCHESTNUT): 0% | pest or weed control at 125 g/ha (WATERCHESTNUT): 0% | pest or weed control at 250 g/ha (WATERCHESTNUT): 0% | pest or weed control at 500 g/ha (WATERCHESTNUT): 0% | pest or weed control at 1000 g/ha (WATERCHESTNUT): 0% | pest or weed control at 5000 g/ha (Sclerotium rolfsii): 0% | pest or weed control at 20 ppm (Puccinia recondita; 20 PPM): 100% | pest or weed control at 20 ppm ([3]; 20 PPM): 89% | pest or weed control at 64 g/ha (ARROWHEAD): 0% | pest or weed control at 125 g/ha (ARROWHEAD): 0% | pest or weed control at 250 g/ha (ARROWHEAD): 0% | pest or weed control at 500 g/ha (ARROWHEAD): 0% | pest or weed control at 1000 g/ha (ARROWHEAD): 0% | pest or weed control at 20 ppm (Venturia inaequalis; 20 PPM): 47% | pest or weed control at 20 ppm ([4]; 20 PPM): 99%

Reference: patent US4965280A, “Antifungal carbinols” (E. I. Du Pont de Nemours and Company, priority 1989, dated 1990)
